Test results reported in ChEMBL document CHEMBL5126579, “Design and synthesis of efficient fluororethylene-peptidomimetic inhibitors of dipeptidyl peptidase III (DPP3)” (Bioorg Med Chem, 2022).

What was measured:
Dipeptidyl peptidase 3 [1] = molecular target: T1, Dipeptidyl peptidase 3 (Homo sapiens, UniProt Q9NY33); test: Competitive inhibition of DPP3 (unknown origin) using Arg-Arg-2-naphthylamide as substrate
T1 sequence (Q9NY33 whole entry): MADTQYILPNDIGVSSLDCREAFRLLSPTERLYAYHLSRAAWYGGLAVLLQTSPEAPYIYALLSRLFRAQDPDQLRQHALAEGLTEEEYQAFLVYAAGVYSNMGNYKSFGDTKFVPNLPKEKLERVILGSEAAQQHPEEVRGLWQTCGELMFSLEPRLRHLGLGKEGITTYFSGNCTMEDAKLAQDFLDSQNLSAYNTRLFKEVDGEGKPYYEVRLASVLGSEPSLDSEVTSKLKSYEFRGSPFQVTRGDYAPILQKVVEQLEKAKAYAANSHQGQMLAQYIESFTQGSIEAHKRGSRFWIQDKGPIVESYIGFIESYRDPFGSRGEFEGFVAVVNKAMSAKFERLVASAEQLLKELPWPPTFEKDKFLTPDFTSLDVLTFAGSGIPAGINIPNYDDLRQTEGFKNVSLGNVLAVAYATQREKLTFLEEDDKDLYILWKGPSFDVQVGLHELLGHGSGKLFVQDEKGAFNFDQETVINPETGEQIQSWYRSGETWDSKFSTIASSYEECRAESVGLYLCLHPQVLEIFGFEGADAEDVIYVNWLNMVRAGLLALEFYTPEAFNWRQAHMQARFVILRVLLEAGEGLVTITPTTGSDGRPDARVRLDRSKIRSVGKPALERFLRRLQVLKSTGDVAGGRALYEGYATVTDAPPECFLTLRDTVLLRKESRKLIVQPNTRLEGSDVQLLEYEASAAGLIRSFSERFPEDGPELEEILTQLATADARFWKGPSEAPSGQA

Dipeptidyl peptidase 3 [2] = molecular target: T1, Dipeptidyl peptidase 3; test: Inhibition of DPP3 (unknown origin)
Dipeptidyl peptidase 3 [3] = molecular target: T1, Dipeptidyl peptidase 3; test: Inhibition of human DPP3 using Arg-Arg-2-naphthylamide as substrate assessed as reduction in release of 2-naphthylamine preincubated for 10 mins followed by substrate addition and measured for 30 mins by fluorescence based analysis

Cc1cc(=O)c2c(cc(O)c3c4c(O)cccc4c(=O)c32)c1=O
IC50 (Dipeptidyl peptidase 3 [1]): 1.44 µM

H-VVFPW-OH
IC50 (Dipeptidyl peptidase 3 [2]): 0.13 µM

CC(C)[C@H](NC(=O)[C@@H](N)C(C)(C)C)/C(F)=C/[C@@H](Cc1ccccc1)C(=O)N1CCCC[C@H]1C(=O)N[C@@H](Cc1c[nH]c2ccccc12)C(=O)O
IC50 (Dipeptidyl peptidase 3 [3]): 21 µM

CC(C)[C@H](N)C(=O)N[C@@H](C(C)C)[C@H](O)N[C@@H](Cc1ccccc1)C(=O)N1CCC[C@H]1C(=O)N[C@@H](Cc1c[nH]c2ccccc12)C(=O)O
IC50 (Dipeptidyl peptidase 3 [2]): 8.5 µM

CC(C)[C@H](NC(=O)[C@@H](N)C(C)(C)C)/C(F)=C/[C@@H](Cc1ccccc1)C(=O)N1CCC[C@H]1C(=O)N[C@@H](Cc1c[nH]c2ccccc12)C(=O)O
IC50 (Dipeptidyl peptidase 3 [3]): 22.5 µM

CC1C(=O)c2cc(O)c3c(c2C(O)C1O)C(=O)c1cccc(O)c1-3 (stereo not drawn)
IC50 (Dipeptidyl peptidase 3 [1]): 74 µM

CC(C)[C@H](N)C(=O)N[C@H](/C(F)=C/[C@@H](Cc1ccccc1)C(=O)N1CCCC[C@H]1C(=O)N[C@@H](Cc1c[nH]c2ccccc12)C(=O)O)C(C)C
IC50 (Dipeptidyl peptidase 3 [3]): 7.7 µM

CC(C)[C@H](N)C(=O)N[C@H](/C(F)=N/[C@@H](Cc1ccccc1)C(=O)N1CCC[C@H]1C(=O)N[C@@H](Cc1c[nH]c2ccccc12)C(=O)O)C(C)C
IC50 (Dipeptidyl peptidase 3 [3]): 4.6 µM
